# Literature values as cited in patent publication US10130562B2, “Monomer mixture for the preparation of dental materials” (Ivoclar Vivadent AG, priority 2014, dated 2018).
# Key:
# rat = conditions: in vivo
structure (smiles),measurement,setting,value
"C=C(C)C(=O)OCCOCCOCCOC(=O)C(=C)C [TEGDMA, triethylene glycol dimethacrylate]",gene mutations in the DNA molecules of mammals,DNA molecules of mammals,leads to gene mutations
same,LD50,rat,> 5000 mg/kg
